Measured values: article doi:10.1101/2023.03.15.532718v2, “Bacterial hemophilin homologs and their specific type eleven secretor proteins have conserved roles in heme capture and are diversifying as a family” (biorxiv, 2023)
Where two headings read alike, the source gives them in different places.

Tests used:
CrpC (Xc CrpC) = target: T1, CrpC (Xc CrpC) (Xenorhabdus cabanillasii, UniProt A0A3D9UFK6); format: binding; settings: 20 mM Tris-HCl pH 8.0, 21 °C, brackets 95% confidence interval
T1 construct: gene BDD26_3141; residues 23-238, signal peptide omitted, His6 tag cut by TEV leaving N-terminal Gly-His-Met, E. coli Rosetta-2, apo as purified; HGB2490 is the authors' collection number

Ab HphA = target: T2, Ab HphA (Acinetobacter baumannii, UniProt A0A059ZRB8); test: biochemical; set-up: UV-visible absorbance titration of porphyrin with protein, 1:1 fit with ligand depletion, 21 C pH 8.0
T2 construct: signal peptide omitted, expressed in E. coli cytoplasm, apo-protein
Experimental: Hemin binding measurements in absorbance mode were made by successive additions of apo-protein (∼0.4 mM stock) into porphyrin solution (1.5 µM) in 20 mM Tris-HCl, pH 8 at 21°C. All binding experiments were performed at 21°C. Data were fitted to a 1:1 binding model accounting for ligand depletion, where Fobs is fluorescence signal, F0 is the starting [drawing 1] fluorescence, Fsat is a scaling factor for fluorescence at saturation, L and M are the ligand and macromolecule concentrations, respectively, and Kd is the equilibrium dissociation constant. Data were fitted using GNUPLOT version 4.6. […] Here, SSbest is the sum-of-squares for the fit with all parameters floated; Dfn and Dfd are the degrees of freedom in the numerator and denominator, respectively, for calculation of F. The Kd value was then fixed at values above or below the best-fit Kd until fits exceeded the threshold sum-of-squares. To determine a lower limit of Kd that we could expect to fit from absorbance measurements we simulated data for different Kd values with Gaussian noise added to give fits with SSbest that matched our experimental data. […] Titration of hemophilin homologues with hemin. […] A) Spectra recorded after addition of H. haemolyticus Hpl to a final concentration in the range 0.3–4.5 µM. B) Spectra recorded after addition of A. baumannii HphA to a final concentration in the range 0.4–3.8 µM. […]

Hpl (hemophilin, Hh Hpl) = target: T3, Hpl (hemophilin, Hh Hpl) (Haemophilus haemolyticus, UniProt A0A0M3G7Q5); test: biochemical; format: binding
T3 construct: gene AAX18_03525; signal peptide omitted, expressed in E. coli cytoplasm as previously described, apo-protein by acid acetone; strain BW1 printed for the secretion clone only

BSA = target: T4, BSA (Bos taurus, UniProt P02769); test: UV-visible absorption titration, […] fit; format: binding; settings: 20 mM Tris-HCl pH 8.0, 21 °C, brackets 95% confidence interval
T4 construct: gene ALB

HrpC (Xn HrpC) = target: T5, HrpC (Xn HrpC) (Xenorhabdus nematophila, UniProt D3VG73); format: binding; settings: 20 mM Tris-HCl pH 8.0, 21 °C, brackets 95% confidence interval
T5 construct: gene XNC1_0075; residues 23-247, signal peptide omitted, His6 tag cut by TEV leaving N-terminal Gly-His-Met, E. coli Rosetta-2, apo-protein by RP-HPLC
T5 sequence (D3VG73 entry or part of it): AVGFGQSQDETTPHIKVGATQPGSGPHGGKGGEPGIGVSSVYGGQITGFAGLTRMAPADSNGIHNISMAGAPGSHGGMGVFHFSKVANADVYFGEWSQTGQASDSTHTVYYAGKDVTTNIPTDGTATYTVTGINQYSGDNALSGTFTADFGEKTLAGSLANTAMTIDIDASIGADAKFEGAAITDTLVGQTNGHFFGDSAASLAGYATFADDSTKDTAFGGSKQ

T4 sequence (P02769 25-607): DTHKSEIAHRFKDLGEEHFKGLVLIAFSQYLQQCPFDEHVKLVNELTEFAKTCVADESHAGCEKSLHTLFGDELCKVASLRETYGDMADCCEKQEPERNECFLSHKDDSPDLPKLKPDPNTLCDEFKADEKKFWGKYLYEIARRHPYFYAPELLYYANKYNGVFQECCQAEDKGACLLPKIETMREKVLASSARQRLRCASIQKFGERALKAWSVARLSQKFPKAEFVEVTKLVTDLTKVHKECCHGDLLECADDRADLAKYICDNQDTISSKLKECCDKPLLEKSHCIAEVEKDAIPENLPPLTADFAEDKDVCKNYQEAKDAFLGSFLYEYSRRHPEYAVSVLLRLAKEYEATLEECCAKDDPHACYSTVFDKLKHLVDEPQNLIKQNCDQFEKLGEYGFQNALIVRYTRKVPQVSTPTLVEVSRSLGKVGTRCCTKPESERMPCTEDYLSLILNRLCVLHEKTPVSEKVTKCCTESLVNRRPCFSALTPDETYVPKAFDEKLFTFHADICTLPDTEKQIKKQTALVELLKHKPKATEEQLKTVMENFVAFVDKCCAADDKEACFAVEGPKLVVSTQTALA
T1 sequence (A0A3D9UFK6 entry or part of it): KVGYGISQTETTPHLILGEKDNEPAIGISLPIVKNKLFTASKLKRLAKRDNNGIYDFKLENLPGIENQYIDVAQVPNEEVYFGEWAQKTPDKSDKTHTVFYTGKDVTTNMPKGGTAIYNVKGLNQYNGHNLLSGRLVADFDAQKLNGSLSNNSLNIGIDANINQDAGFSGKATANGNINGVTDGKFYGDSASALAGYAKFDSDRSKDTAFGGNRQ
T3 sequence (A0A0M3G7Q5 entry or part of it): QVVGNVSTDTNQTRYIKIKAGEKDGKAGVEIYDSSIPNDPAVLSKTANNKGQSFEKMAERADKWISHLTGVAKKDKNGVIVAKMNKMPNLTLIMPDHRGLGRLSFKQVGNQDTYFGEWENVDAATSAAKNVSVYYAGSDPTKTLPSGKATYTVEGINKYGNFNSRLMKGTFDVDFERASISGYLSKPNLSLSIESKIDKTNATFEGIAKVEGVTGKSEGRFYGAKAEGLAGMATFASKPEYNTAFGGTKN
T2 sequence (A0A059ZRB8 whole entry): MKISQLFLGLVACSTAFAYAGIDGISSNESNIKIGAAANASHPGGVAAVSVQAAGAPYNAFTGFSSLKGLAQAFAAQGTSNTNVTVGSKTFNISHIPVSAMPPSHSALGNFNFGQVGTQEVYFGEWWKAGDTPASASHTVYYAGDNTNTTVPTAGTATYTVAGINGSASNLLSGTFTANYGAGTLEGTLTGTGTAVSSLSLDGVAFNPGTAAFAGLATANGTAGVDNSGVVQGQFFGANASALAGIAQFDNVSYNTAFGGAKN

SMILES	Kd (CrpC (Xc CrpC))	Kd (Ab HphA)	Kd (Hpl (hemophilin, Hh Hpl))	Kd (BSA)	Kd (HrpC (Xn HrpC))	Kd (CrpC (Xc CrpC); apparent Kd)	Kd (BSA; apparent Kd)	Kd (HrpC (Xn HrpC); b21 prints both nM and µM for this value, table nM)
C=CC1=C(C)c2cc3[nH]c(cc4nc(cc5[nH]c(cc1n2)c(C)c5CCC(=O)O)C(CCC(=O)O)=C4C)c(C)c3C=C [PPIX]	7 (3–11) × 10^3 nM	≤ 0.015 µM	0.07 µM	11 (6–14) × 10^3 nM	20 nM	–	–	–
C=CC1=C(C)C2=Cc3c(C=C)c(C)c4[n]3[Fe]([Cl])[n]3c(c(C)c(CCC(=O)O)c3=CC3=NC(=C4)C(C)=C3CCC(=O)O)=CC1=N2 [hemin]	–	–	–	–	–	5 (1–9) × 10^3 nM	2 (1–5) × 10^3 nM	20 nM
